Source: patent US20260347399A1, “BRAIN PENETRATING PEPTIDES AND METHODS OF USE” (priority 2022, published 2026)
Ends that are not written are not given here.

Columns and labels:
LRP-1 cluster III = target: T1, LRP-1 cluster III (Homo sapiens, UniProt Q07954); assay: Bead binding assay (FACS); conditions: 10 nM LRP-1 cluster III, biotinylated peptide on beads
T1 construct: detected by anti-human antibody
Experimental: (§1) Briefly, 50 μl of Myone Dynabeads were washed multiple times and incubated with 100 μl of 2 mM biotinylated peptide at room temperature for 2h. Beads were washed twice with PBS, 0.01% Tween 20-DPBS, and 0.01% PBS-BSA. The beads were then incubated overnight with 10 nM LRP-1 cluster II, or LRP-1 cluster III, and Alexa Fluor 647 anti-human LRP-1 antibody (1:200) in PBS with 0.1% BSA (FIGS. 19A-19B).
(§2) The beads were washed several times and analyzed by FACS. Samples are indicated as follows: • Negative control (−ve control): beads incubated with biotin (non-peptide), LRP-1 cluster III protein, and Alexa Fluor 647 anti-human antibody; • Positive control for the cluster II expts: beads incubated with biotinylated-Angiopep2 peptide, LRP-1 cluster II protein and Alexa Fluor 647 anti-human LRP-1 antibody (see FIG. 19A); and • Positive control for cluster III expts: beads incubated with biotinylated-RPAR peptide, Neuropilin-1 b1b2 protein, (1:200) anti-neuropilin-1 antibody, (1:200) and Alexa Fluor 647 anti-rabbit antibody (see FIG. 19B).
(§3) 10,000 events per condition were analyzed. Experient was performed in three replicates per condition and t-test compared scramble sequence (SARVISRAKLARAL (SEQ ID NO:70)) with Cerepep.

LRP-1 cluster II = target: T2, LRP-1 cluster II (Homo sapiens, UniProt Q07954); assay: Bead binding assay (FACS); conditions: 10 nM LRP-1 cluster II, biotinylated peptide on beads
T2 construct: detected by anti-human LRP-1 antibody
Experimental: as §1, §2, §3

T2 sequence (Q07954 786-1165 limits assumed): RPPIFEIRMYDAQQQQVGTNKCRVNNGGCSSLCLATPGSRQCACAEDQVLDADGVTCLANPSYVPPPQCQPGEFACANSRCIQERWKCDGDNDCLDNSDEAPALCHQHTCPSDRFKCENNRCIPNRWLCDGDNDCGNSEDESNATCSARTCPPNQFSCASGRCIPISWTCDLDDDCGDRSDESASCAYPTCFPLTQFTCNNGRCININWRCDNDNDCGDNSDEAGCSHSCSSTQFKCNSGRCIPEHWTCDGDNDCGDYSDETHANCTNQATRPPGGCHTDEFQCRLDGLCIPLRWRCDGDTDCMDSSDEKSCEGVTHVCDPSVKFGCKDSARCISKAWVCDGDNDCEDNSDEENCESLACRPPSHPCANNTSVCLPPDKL
T1 sequence (Q07954 2522-2941 limits assumed): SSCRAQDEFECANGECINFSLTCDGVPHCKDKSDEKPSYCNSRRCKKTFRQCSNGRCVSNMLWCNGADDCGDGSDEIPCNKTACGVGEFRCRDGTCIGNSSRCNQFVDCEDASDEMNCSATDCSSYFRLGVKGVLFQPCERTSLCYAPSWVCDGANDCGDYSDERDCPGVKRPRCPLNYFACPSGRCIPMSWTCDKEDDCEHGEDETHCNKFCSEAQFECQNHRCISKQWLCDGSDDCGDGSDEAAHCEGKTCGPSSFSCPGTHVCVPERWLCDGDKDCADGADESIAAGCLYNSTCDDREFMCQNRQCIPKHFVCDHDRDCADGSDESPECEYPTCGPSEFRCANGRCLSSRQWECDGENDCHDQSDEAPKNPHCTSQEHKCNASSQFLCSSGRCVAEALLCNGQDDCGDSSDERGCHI

“SRRVISRAKLAAAL [Cerepep, SRRVISRAKLAAAL]” was tested, and the “interaction with LRP-1 cluster III” value (LRP-1 cluster III) was “interacts with LRP-1 cluster II and cluster III” and the “interaction with LRP-1 cluster II” value (LRP-1 cluster II) was “interacts with LRP-1 cluster II”.
